The test has as its target 5-hydroxytryptamine receptor 1E (Homo sapiens, UniProt P28566).

These results are taken from BindingDB's records for PubMed 1513320 (Synaptic Pharmaceutical, 1992).

Each structure is given as a SMILES string.

5-hydroxytryptamine receptor 1E, sequence (P28566 whole entry): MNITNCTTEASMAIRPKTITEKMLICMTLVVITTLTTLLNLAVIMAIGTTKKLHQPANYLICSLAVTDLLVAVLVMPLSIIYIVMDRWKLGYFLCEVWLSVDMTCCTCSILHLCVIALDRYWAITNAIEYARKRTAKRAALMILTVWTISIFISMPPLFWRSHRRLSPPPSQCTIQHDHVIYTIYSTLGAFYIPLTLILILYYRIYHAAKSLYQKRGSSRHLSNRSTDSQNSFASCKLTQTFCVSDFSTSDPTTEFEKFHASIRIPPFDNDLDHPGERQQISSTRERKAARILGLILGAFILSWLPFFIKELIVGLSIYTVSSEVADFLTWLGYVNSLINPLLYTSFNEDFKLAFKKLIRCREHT

Consider `NCCc1c[nH]c2ccc(C(N)=O)cc12` [[3H]-5-carboxamidotryptamine], for which the Ki (commonly the equilibrium dissociation constant of an inhibitor or competing ligand from its target) was greater than 10 µM. Consider `CC(C)NCC(O)COc1cccc2[nH]ccc12` (stereo not drawn) [LB-46], for which the Ki was greater than 10 µM. Then `COc1cc(N)c(Cl)cc1C(=O)NC1CN2CCC1CC2` (stereo not drawn) [ZACOPRIDE,R], with greater than 10 µM. Then `CC(CO)NC(=O)C1C=C2c3cccc4[nH]cc(c34)CC2N(C)C1` (stereo not drawn) [CAS_60-79-7], with 0.088 µM.

In the case of `O=C(c1ccc(F)cc1)C1CCN(CCn2c(=O)[nH]c3ccccc3c2=O)CC1` [3-(2-{4-[(4-fluorophenyl)carbonyl]piperidin-1-yl}ethyl)-1,2,3,4-tetrahydroquinazoline-2,4-dione], the Ki is greater than 10 µM. Then `Cn1cc(CCN)c2cc(O)ccc21` [5-HT,omega-N-Me], with 0.121 µM; and `COC(=O)[C@@H]1[C@H]2C[C@H]3c4[nH]c5ccccc5c4CCN3C[C@@H]2CC[C@@H]1O` [yohimbic acid methyl ester], with 3.43 µM. Then `CCC(=O)c1ccc(N)cc1` [CAS_6270], with greater than 10 µM.
